This is an account of results in article PMC12333015, “Profiling the Impact of mGlu7/Elfn1 Protein Interactions on the Pharmacology of mGlu7 Allosteric Modulators” (ACS Chemical Neuroscience, 2025).

In one test the target is T1, rat mGlu7 (Rattus norvegicus, UniProt P35400).
T1 construct: expressed in transfected cells; host or cells: HEK293A cells stably expressing mGlu7 and GIRK1/2
In words: Thallium flux assay, mGlu7/GIRK HEK293 cells cocultured with pcDNA3 vector control cells. Type of test: cell-based. Conditions: L-AP4 pEC50 ± SEM, pcDNA, DMSO vehicle. An excerpt: (§1) We began our evaluation of mGlu7 ligands in the presence and absence of Elfn1 by using a coculture system as previously described , with several modifications (Figure ). Cells expressing rat mGlu7 and coexpressing G protein inwardly rectifying potassium (GIRK) channels 1 and 2 were cocultured with cells expressing either an empty pcDNA3 vector control or a plasmid containing Elfn1 in the pcDNA3 backbone. We then evaluated the activity of the orthosteric agonist L-AP4 and measured effects on maximal response and pEC50. All responses were normalized to the maximal effect of L-AP4 in the presence of the pcDNA3 control plasmid.
(§2) 2 Assay design and workflow. (Left panel) Cells expressing rat mGlu7/GIRK (pink) were cocultured with pcDNA3 (blue) or Elfn1 (purple). […] (Right panel) The effect on the concentration–response curve in the presence (purple) or absence (blue) of Elfn1 can be seen by a change in efficacy, potency, and/or basal response.
(§3) HEK293A cells stably expressing mouse Elfn1 or pcDNA3 were maintained in growth medium containing 90% Dulbecco’s Modified Eagle Media (DMEM), 10% fetal bovine serum (FBS), 100 units/mL penicillin/streptomycin, 20 mM HEPES, 1 mM sodium pyruvate, 2 mM L-glutamine, 1× nonessential amino acids, and 700 μg/mL G418 sulfate. HEK mGlu7/GIRK cells were maintained in a growth medium with 90% DMEM/F12, 10% dialyzed FBS, 100 units/mL penicillin/streptomycin, 20 mM HEPES, 1 mM sodium pyruvate, 2 mM L-glutamine, 1× nonessential amino acids, 700 μg/mL G418 sulfate, and 600 ng/mL puromycin. All cell culture reagents were purchased from Invitrogen (Carlsbad, CA).
(§4) Thallium flux assays were performed as previously described. A mixture of HEK293A mGlu7/GIRK cells and pcDNA3 or Elfn1-expressing HEK293A cells (5000/15,000 cells/20 μL/well for agonist and PAM experiments; 7500/15,000 cells/20 μL/well for NAM experiments) was seeded in 384-well, amine-coated assay plates (Greiner Bio-One, Monroe, NC). Cells were incubated overnight in a humidified 5% CO2 cell culture incubator at 37 °C. […] Following a 1 h incubation at room temperature, the dye loading solution was replaced with 20 μL/well assay buffer and the plates were loaded into a Hamamatsu FDSS 7000 (Bridgewater, NJ). […] Thallium flux data were analyzed by first dividing each point in each wave by the first point in that wave and then subtracting the average of the vehicle control response. The slopes of these vehicle control-subtracted waves were calculated over ten data points beginning 2 s after thallium stimulus addition and fit to a three-parameter logistic equation in GraphPad Prism (La Jolla, CA). In most cases, the final data were normalized to the response of the mGlu7/pcDNA3 with vehicle and 5 mM L-AP4 unless otherwise noted. Potency (pEC50) and maximum responses (E max) induced by compounds were determined using a four-parameter logistical equation in Prism. Basal activity was calculated with data points at the three lowest test concentrations. Maximum activity was calculated with data points at two highest concentrations. All experiments were replicated at least three times in duplicate or triplicate.

The target of the next test is T2, mGlu7/Elfn1 (Rattus norvegicus, UniProt P35400).
T2 construct: expressed in transfected cells; host or cells: HEK293A mGlu7/GIRK cells cocultured with HEK293A polyclonal cells stably expressing Elfn1-Myc (pcDNA3)
In words: Thallium flux assay, mGlu7/GIRK HEK293 cells cocultured with Elfn1-expressing cells. The conditions noted are these: for EC50: L-AP4 pEC50 ± SEM, Elfn1, DMSO vehicle. Type of test: cell-based, mouse Elfn1.
Text: as §1, §2
HEK293A polyclonal cells stably expressing either Elfn1 or empty vector were passaged in media (Dulbecco’s modified Eagle medium (DMEM), supplemented with 10% fetal bovine serum (FBS), 20 mM N-(2-hydroxyethyl)-piperazine-N′-ethanesulfonic acid (HEPES), 1 mM Na pyruvate, 2 mM Glutamax, 0.1 mM nonessential amino acids, 1× antibiotic/antimycotic) under G418 (700 μg/mL) selection to maintain expression.
as §3
as §4, with “NJ). Data were acquired at 1 Hz (excitation 470 ± 20 nm, emission 540 ± 30 nm) for 10 s, followed by the addition of 20 μL/well of 10 μM NAM/PAM/DMSO, followed by an additional 4 min of data collection.” for “NJ).”, “Prism.” for “Prism. Basal activity was calculated with data points at the three lowest test concentrations. Maximum activity was calculated with data points at two highest concentrations. All experiments were replicated at least three times in duplicate or triplicate.”

The mark [1] stands for this setting: agonist alone (DMSO row of Table 2).
Where [2] appears, read: agonist alone (DMSO row of Table S1).

Each structure is given as a SMILES string.

As usually defined, the EC50 is the concentration giving half of the maximal effect.

T2 sequence (P35400 35-915): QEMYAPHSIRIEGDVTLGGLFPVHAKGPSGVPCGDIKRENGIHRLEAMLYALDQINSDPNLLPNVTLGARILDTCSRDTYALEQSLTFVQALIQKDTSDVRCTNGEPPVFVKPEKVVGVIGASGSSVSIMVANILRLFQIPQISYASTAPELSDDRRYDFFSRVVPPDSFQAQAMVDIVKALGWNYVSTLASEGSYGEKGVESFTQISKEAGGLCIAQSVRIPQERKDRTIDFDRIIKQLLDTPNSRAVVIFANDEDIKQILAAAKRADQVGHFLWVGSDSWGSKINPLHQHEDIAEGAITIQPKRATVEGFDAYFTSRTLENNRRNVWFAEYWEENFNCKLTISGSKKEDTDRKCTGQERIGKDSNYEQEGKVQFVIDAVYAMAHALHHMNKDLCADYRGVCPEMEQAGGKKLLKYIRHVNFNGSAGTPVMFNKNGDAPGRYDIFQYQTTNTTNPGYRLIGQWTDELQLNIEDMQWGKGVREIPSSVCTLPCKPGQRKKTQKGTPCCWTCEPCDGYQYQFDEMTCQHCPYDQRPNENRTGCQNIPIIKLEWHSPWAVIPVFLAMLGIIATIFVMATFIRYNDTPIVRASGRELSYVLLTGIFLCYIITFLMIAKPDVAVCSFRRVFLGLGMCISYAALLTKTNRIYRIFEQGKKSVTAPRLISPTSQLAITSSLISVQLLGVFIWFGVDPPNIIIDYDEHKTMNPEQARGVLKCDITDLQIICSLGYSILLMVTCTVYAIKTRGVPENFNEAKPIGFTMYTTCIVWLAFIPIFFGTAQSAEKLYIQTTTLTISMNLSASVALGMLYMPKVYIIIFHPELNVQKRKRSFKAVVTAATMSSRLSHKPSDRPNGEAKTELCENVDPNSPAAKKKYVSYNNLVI
T2 sequence (Q8C8T7 26-828 partner): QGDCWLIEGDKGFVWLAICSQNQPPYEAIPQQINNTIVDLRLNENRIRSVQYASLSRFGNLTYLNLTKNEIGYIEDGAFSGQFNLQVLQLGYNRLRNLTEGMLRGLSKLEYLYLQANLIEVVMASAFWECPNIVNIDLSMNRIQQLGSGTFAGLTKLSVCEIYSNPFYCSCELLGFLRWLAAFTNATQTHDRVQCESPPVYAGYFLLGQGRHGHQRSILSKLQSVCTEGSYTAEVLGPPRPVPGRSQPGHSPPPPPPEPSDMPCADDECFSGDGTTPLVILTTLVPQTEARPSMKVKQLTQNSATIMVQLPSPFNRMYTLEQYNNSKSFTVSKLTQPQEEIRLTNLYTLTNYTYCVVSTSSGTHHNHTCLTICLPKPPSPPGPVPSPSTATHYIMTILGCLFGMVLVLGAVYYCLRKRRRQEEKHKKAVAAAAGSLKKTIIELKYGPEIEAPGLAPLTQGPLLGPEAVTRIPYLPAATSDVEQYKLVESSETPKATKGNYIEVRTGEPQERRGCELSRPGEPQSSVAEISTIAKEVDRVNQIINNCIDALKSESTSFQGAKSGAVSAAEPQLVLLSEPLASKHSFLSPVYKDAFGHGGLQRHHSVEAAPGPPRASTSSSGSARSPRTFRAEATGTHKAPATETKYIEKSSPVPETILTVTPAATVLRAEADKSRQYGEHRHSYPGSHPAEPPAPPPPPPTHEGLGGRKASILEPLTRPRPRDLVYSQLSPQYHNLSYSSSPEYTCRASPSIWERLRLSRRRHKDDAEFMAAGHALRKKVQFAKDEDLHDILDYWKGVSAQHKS
T1 sequence (P35400 35-915): as the sequence (P35400 35-915) above

As to `N[C@@H](CCP(=O)(O)O)C(=O)O` [L-AP4, L-2-amino-4-phosphonobutyric acid, reference compound], the 50% effective concentration (EC50) on rat mGlu7 (setting [1]) is 195 µM; on rat mGlu7 (setting [2]), 240 µM; at mGlu7/Elfn1 (setting [1]), 324 µM; at mGlu7/Elfn1 (setting [2]), 200 µM. The “maximal response to L-AP4 with Elfn1 versus pcDNA3” value at mGlu7/Elfn1 (eight experiments, p < 0.001) is given as “significantly reduced”. The “pEC50 of L-AP4 with Elfn1 versus pcDNA3” value at mGlu7/Elfn1 (eight experiments, p < 0.01) is given as “significantly reduced”.
